One block for each compound: values may come before it. The source made the active and inactive calls.
What was measured:
[1] = biological target: Cytochrome P450 2D6 (Homo sapiens, UniProt P10635); experiment: qHTS Assay for Inhibitors and Substrates of Cytochrome P450 2D6. [Related pubchem assays: 410 ]; type: ADME; settings: read-out: Potency
[2] = biological target: Cytochrome P450 2C19 (Homo sapiens, UniProt P33261); experiment: qHTS Assay for Inhibitors and Substrates of Cytochrome P450 2C19. [Related pubchem assays: 410 ]; type: ADME; settings: read-out: Potency
[3] = biological target: Polyadenylate-binding protein 1 (Homo sapiens, UniProt P11940); experiment: blockers of PABP interaction with poly(A) – biochemical, fluorescence polarization, […] (AID 2014)
[4] = biological target: Eukaryotic translation initiation factor 4H (Homo sapiens, UniProt Q15056); experiment: eIF4H binding inhibition – biochemical, uHTS, fluorescence polarization, translation initiation inhibitor project, primary screen (AID 2012)
[5] = biological target: DNA dC->dU-editing enzyme APOBEC-3G (Homo sapiens, UniProt Q9HC16); type: functional;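 note: Dose-response counterscreen measuring inhibition of APOBEC3G DNA deaminase activity, run while confirming APOBEC3A inhibitors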
[6] = biological target: DNA dC->dU-editing enzyme APOBEC-3A (Homo sapiens, UniProt P31941); experiment: Dose Response confirmation of small molecule APOBEC3A DNA Deaminase Inhibitors via a fluorescence-based single-stranded DNA deaminase assay. [Related pubchem assays (depositor defined):AID493011, AID493024]; type: functional
[7] = biological target: Mothers against decapentaplegic homolog 3 (Homo sapiens, UniProt P84022); experiment: blockers of Smad3 complex formation in lysate – cell lysate, secondary confirmation, chemiluminescent ELISA, HEK293 lysate, dose response (AID 1058); type: functional
[8] = biological target: T1, Eukaryotic translation initiation factor 2-alpha kinase 3 (Homo sapiens, UniProt Q9NZJ5); experiment: Counterscreen assay for PERK inhibitors: Dose response cell-based high throughput screening assay to measure inhibition of PERK at 6 hours. [Related pubchem assays: 1522, 1416 ]; type: functional
[9] = biological target: T1, Eukaryotic translation initiation factor 2-alpha kinase 3; experiment: Dose response cell-based high-throughput screening assay to measure PERK inhibition. [Related pubchem assays: 1416 ]; type: functional
[10] = biological target: Eukaryotic translation initiation factor 4E (Mus musculus, UniProt P63073); experiment: blockers of eIF4G binding by eIF4E – biochemical, TR-FRET, dose response (AID 855); type: functional;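 note: potency for disrupting eIF4E binding to eIF4GI seen as loss of FRET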
[11] = biological target: T2, Short transient receptor potential channel 4 (Mus musculus, UniProt Q9QUQ5); experiment: block of DAMGO-driven TRPC4 calcium entry – cell-based, HEK293 TRPC4/mu-opioid, Fluo-4 calcium, dose response (AID 434942); type: functional;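 note: potency of inhibitors blocking the TRPC4 calcium response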
T2 sequence (Q9QUQ5 whole entry): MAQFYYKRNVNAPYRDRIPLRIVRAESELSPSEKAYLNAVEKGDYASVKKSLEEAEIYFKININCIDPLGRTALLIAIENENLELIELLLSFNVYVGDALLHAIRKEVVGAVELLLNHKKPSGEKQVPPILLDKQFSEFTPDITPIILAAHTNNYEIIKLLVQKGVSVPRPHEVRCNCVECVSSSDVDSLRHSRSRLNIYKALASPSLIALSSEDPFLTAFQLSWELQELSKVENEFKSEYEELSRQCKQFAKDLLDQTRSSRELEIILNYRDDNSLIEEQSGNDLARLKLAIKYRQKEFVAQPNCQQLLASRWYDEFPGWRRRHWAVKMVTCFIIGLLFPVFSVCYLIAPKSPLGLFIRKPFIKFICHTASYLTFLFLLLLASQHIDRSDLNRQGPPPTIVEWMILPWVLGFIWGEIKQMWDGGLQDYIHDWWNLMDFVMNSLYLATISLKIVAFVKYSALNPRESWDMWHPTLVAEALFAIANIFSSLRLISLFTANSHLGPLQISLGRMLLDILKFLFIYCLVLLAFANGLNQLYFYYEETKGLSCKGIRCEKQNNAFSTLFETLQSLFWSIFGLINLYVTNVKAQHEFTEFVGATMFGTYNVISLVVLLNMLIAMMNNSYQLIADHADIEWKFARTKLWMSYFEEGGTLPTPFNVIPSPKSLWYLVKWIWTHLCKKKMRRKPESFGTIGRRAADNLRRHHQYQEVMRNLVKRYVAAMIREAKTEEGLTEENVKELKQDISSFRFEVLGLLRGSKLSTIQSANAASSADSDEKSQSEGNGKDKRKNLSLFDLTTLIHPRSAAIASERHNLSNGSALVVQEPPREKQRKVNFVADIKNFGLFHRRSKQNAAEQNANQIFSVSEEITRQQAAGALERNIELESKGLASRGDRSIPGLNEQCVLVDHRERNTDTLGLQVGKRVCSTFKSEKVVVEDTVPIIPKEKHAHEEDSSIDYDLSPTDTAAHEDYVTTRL

[12] = biological target: T3, Insulin-degrading enzyme (Homo sapiens, UniProt P14735); experiment: Dose Response: Fluorescence polarization-based cell-based high throughput dose response assay for inhibitors of insulin-degrading enzyme (IDE). [Related pubchem assays: 434962 (Primary screen (IDE inhibitors in singlicate)), 449730 (Counterscreen (Cytotoxicity in triplicate)), 435028 (Confirmation (IDE inhibitors in triplicate)), 434984 (Summary …; type: functional
T3 sequence (P14735 whole entry): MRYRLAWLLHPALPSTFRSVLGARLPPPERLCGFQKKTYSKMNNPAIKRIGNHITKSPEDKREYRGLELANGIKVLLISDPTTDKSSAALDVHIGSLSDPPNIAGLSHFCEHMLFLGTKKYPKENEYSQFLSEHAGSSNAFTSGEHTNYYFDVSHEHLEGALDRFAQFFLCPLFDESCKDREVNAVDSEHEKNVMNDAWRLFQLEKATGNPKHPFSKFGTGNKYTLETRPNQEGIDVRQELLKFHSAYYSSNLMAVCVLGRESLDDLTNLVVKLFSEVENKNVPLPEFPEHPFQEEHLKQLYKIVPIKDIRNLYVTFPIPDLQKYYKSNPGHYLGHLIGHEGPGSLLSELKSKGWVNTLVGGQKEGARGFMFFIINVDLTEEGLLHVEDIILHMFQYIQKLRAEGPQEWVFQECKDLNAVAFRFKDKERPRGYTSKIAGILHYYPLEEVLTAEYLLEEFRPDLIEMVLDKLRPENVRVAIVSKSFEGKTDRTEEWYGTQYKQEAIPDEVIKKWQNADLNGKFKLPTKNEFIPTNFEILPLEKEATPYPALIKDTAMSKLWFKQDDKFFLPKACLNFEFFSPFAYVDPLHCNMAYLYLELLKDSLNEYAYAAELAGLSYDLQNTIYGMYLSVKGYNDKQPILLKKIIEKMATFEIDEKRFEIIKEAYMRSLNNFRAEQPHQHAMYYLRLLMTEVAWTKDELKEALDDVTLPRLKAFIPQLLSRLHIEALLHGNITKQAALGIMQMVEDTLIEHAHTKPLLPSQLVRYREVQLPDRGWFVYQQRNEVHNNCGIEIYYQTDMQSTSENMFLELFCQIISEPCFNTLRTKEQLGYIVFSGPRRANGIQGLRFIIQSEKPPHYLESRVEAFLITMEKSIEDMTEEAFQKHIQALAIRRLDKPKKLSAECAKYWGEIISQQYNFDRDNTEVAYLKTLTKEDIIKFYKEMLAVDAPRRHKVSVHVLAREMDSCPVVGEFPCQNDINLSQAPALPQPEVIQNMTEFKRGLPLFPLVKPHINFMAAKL

[13] = biological target: T4, Sentrin-specific protease 1 (Homo sapiens, UniProt Q9P0U3); experiment: SENP1 catalytic domain blockers, concentration series – biochemical, kinetic FRET, dose response (AID 651697); type: functional; settings: read-out: IC50_Mean
T4 sequence (Q9P0U3 whole entry): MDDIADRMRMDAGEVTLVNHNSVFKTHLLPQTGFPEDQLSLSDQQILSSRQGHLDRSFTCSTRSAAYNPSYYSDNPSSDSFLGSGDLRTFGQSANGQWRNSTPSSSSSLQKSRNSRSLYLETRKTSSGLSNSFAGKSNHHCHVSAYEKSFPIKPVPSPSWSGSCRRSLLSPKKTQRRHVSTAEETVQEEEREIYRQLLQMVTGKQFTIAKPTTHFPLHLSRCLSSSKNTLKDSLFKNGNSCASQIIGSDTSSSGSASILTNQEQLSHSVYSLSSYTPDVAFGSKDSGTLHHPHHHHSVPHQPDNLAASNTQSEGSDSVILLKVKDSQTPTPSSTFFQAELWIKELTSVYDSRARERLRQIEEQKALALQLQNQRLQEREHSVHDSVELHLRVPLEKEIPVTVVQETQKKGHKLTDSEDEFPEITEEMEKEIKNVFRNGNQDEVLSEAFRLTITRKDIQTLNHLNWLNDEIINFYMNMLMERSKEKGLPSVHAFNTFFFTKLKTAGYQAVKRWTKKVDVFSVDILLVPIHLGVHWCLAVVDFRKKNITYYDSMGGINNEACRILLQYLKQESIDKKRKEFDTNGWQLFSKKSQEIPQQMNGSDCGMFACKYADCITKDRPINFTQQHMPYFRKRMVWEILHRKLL

[14] = biological target: T4, Sentrin-specific protease 1; experiment: Dose response confirmation of small molecule inhibitors of the catalytic domain of the SUMO protease, SENP1 in a FRET assay.; type: functional; settings: read-out: IC50_Mean
[15] = Counterscreen for IDE inhibitors: Luminescence-based cell-based high throughput dose response assay to identify compounds that are cytotoxic to HEK cells. [Related pubchem assays: 434962 (Primary screen (IDE inhibitors in singlicate)), 449730 (Counterscreen (Cytotoxicity in triplicate)), 435028 (Confirmation (IDE inhibitors in triplicate)) …; type: functional; settings: HEK293
[16] = biological target: T5, Heat shock 70 kDa protein 1A (Homo sapiens, UniProt P0DMV8); experiment: small molecules displacing fluorescent ligand from Hsp70 – biochemical, fluorescence polarization, primary screen (AID 583)
[17] = biological target: Induced myeloid leukemia cell differentiation protein Mcl-1 (Homo sapiens, UniProt Q07820); experiment: blockers of MCL1 binding to BIM peptide – biochemical, fluorescence polarization, BIM-BH3 peptide, 1536-well, dose response (AID 2217)
[18] = biological target: Genome polyprotein (Hepatitis C virus, UniProt Q2Q167); experiment: disruption of hepatitis C core self-association – biochemical, TR-FRET, dose response (AID 2159); set-up: species or system Hepacivirus hominis;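 note: blocks dimerization of HCV core protein measured by TR-FRET between tagged core106 pairs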
[19] = biological target: T5, Heat shock 70 kDa protein 1A; experiment: small-molecule inhibition of Hsp70 – biochemical, TR-FRET (AID 786)
[20] = biological target: Bcl-2-like protein 1 (Homo sapiens, UniProt Q07817); experiment: blockers of BCLXL peptide binding – biochemical, fluorescence polarization, 1536-well, selectivity assay for MCL1 inhibitor project, dose response (AID 2218)
[21] = Luminescence Cell-Based Dose Confirmation HTS to Identify Inhibitors of Platelet Dense Granule Release. [Related pubchem assays: 1663 (Primary HTS), 1678 (Summary of Project)]; type: functional
[22] = ADP-Glo luciferase signal interference – biochemical, luminescence, cherry-picked samples, set 2, artefact control for CDK5 inhibitor project, dose response (AID 504546); type: functional, cell-based
[23] = biological target: Cyclin-dependent kinase 5/CDK5 activator 1 (Homo sapiens, UniProt Q00535); experiment: blockade of human CDK5 activity – biochemical, cherry-picked samples, set 2, dose response (AID 504545)
[24] = biological target: Luciferin 4-monooxygenase (Photinus pyralis, UniProt P08659); experiment: inhibition of purified Photinus pyralis luciferase – biochemical, luminescence, dose response (AID 1891)
[25] = biological target: Serine/threonine-protein phosphatase PP1-alpha catalytic subunit (Homo sapiens, UniProt P62136); experiment: inhibition of protein phosphatase 1 activity – biochemical, fluorescence, dose response (AID 2403);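 note: phosphatase turnover of OMFP into fluorescent 3-O-methylfluorescein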
[26] = biological target: Serine/threonine-protein phosphatase (Homo sapiens, UniProt Q9BPW0); experiment: Counterscreen for inhibitors of PP1: fluorescence-based biochemical high throughput dose response assay to identify inhibitors of Protein Phosphatase 5 (PP5). [Related pubchem assays: 2034 (Summary (PP5 inhibitors)), 1987 (PP5 inhibitors in singlate), 2235 (PP1 inhibitors in singlate)]
[27] = biological target: Acyl-homoserine lactone acylase PvdQ (Pseudomonas aeruginosa (strain LESB58), UniProt Q9I194); experiment: PvdQ acylase enzyme activity blockers – biochemical, fluorescence, plate reader and imaging, cherry-picks, dose response (AID 493231)
Chain of Acyl-homoserine lactone acylase PvdQ (Q9I194 24-193 limits assumed): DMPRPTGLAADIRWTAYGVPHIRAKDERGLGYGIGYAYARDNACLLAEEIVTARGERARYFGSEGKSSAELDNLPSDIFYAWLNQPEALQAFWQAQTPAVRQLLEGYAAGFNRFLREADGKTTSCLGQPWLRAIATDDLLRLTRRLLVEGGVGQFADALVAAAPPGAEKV
Chain of Acyl-homoserine lactone acylase PvdQ (Q9I194 217-762 limits assumed): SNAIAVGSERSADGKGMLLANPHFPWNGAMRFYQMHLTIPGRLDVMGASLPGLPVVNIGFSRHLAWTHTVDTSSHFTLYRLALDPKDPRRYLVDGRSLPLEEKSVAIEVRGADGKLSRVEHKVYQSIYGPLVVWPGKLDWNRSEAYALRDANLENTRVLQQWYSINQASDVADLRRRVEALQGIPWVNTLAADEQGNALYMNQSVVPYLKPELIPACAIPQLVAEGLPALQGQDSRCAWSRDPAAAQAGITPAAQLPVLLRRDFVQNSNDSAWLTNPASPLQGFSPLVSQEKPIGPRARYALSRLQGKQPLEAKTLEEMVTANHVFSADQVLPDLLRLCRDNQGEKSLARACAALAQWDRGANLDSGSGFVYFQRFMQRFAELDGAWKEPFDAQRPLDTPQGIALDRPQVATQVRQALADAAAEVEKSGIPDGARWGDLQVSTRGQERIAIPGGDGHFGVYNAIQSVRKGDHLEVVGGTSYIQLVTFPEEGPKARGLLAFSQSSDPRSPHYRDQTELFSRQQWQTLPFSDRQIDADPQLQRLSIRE

T1 sequence (Q9NZJ5 whole entry): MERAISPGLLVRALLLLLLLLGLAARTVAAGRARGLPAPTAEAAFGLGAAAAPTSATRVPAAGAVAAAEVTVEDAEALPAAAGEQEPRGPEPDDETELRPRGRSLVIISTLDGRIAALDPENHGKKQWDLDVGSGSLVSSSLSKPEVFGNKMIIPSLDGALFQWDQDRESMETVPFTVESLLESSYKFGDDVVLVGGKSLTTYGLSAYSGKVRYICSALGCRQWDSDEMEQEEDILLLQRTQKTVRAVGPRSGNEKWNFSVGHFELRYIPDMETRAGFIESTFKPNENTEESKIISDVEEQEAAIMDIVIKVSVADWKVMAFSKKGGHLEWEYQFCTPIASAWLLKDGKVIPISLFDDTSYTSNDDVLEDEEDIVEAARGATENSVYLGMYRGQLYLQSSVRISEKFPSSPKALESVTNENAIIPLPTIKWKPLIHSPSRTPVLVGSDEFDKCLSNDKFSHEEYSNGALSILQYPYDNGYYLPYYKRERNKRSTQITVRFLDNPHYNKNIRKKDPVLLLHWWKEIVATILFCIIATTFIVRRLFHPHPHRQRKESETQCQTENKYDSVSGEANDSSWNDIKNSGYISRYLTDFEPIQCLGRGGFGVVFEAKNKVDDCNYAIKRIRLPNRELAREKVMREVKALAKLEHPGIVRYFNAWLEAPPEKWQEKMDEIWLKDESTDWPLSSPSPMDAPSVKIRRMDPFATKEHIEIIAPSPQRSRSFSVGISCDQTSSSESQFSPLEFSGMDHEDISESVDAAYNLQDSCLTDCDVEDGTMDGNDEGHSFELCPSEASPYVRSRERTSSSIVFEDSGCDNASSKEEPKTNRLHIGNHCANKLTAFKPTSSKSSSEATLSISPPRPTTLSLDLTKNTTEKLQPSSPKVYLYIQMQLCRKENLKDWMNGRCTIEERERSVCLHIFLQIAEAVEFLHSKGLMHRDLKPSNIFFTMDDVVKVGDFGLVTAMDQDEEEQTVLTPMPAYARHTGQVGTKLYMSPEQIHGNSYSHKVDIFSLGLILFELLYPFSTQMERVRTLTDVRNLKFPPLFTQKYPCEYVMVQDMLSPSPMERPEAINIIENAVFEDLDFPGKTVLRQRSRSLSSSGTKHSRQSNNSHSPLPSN
T5 sequence (P0DMV8 whole entry): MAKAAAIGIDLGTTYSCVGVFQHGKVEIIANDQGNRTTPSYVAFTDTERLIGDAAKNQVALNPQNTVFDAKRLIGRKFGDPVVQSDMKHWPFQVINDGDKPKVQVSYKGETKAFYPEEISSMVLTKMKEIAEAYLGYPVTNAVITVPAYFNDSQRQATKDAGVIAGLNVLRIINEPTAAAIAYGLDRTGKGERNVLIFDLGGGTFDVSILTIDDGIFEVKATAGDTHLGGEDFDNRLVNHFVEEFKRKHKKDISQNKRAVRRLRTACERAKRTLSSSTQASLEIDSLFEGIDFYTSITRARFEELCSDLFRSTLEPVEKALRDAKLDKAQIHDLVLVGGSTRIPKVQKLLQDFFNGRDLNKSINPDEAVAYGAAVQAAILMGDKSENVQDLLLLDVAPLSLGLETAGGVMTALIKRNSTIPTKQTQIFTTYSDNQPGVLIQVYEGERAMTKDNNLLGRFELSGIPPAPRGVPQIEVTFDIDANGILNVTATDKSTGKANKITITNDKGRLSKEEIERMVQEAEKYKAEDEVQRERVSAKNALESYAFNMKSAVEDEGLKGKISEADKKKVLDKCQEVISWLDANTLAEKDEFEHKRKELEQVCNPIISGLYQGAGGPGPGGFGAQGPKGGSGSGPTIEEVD
Chain of Polyadenylate-binding protein 1 (P11940 whole entry): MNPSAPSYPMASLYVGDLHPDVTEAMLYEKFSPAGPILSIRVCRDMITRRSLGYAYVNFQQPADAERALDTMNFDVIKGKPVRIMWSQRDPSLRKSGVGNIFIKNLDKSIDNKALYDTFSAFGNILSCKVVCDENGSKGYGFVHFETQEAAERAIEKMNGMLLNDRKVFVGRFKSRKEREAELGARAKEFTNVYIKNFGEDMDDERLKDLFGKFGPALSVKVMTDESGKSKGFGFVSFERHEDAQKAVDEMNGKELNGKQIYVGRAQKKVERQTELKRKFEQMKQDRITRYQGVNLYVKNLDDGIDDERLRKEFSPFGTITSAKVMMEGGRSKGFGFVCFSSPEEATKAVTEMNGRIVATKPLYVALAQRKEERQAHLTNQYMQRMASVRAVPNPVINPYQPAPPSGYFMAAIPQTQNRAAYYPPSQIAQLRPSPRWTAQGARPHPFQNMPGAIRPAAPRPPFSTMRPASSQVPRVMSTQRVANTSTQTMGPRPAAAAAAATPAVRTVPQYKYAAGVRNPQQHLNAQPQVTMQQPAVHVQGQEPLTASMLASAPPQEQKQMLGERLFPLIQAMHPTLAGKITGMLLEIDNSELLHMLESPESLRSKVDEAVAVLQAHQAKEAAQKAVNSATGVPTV
Chain of DNA dC->dU-editing enzyme APOBEC-3G (Q9HC16 whole entry): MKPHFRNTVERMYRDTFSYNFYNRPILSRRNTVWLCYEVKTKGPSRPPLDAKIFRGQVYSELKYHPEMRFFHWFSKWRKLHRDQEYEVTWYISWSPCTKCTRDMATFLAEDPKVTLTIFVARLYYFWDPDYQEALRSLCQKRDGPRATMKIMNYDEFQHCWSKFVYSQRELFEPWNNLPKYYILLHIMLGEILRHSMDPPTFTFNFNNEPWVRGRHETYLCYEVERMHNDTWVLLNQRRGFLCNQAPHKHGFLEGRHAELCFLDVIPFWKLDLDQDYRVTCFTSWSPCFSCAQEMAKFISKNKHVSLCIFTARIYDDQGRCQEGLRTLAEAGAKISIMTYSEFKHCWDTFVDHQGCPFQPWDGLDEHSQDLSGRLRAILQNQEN
Chain of DNA dC->dU-editing enzyme APOBEC-3A (P31941 whole entry): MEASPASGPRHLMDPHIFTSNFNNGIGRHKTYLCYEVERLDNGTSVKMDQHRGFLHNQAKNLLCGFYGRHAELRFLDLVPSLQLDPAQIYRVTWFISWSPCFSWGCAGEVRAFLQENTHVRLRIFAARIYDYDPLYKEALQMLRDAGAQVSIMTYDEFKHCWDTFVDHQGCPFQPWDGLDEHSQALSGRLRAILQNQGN
Chain of Serine/threonine-protein phosphatase (Q9BPW0 whole entry): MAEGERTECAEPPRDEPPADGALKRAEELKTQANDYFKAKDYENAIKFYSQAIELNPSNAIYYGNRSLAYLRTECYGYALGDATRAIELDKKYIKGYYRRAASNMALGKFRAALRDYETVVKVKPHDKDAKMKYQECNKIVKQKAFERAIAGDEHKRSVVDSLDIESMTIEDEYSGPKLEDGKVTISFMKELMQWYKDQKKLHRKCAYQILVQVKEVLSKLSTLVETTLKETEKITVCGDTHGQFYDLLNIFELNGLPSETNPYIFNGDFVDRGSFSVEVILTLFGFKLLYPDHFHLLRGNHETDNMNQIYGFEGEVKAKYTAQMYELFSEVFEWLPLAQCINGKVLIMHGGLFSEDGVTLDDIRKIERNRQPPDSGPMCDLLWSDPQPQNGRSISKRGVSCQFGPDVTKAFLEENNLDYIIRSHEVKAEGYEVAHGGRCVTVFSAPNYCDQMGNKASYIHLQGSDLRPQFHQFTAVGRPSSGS
Chain of Cytochrome P450 2C19 (P33261 whole entry): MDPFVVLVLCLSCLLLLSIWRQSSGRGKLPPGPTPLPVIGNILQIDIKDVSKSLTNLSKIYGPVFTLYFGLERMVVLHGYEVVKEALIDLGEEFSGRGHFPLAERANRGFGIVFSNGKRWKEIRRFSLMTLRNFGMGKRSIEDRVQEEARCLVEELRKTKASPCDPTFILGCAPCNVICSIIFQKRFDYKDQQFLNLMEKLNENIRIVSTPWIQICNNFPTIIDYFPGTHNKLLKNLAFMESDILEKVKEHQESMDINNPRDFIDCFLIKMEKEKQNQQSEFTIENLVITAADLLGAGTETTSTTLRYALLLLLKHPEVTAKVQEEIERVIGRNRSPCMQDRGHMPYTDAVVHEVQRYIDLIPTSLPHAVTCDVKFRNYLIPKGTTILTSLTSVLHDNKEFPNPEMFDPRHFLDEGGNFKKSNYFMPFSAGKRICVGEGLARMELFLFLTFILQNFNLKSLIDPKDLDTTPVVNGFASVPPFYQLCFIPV

AC50 [1]: 31.6 µM (inconclusive)
AC50 [2]: 5.01 µM (inconclusive)
Structure (SMILES): COc1cc2oc(-c3ccccc3)cc(=O)c2cc1O

Structure (SMILES): C=CCNC1=N[C@@H](c2ccccc2)C(C(=O)OC)=C(C)N1CC
IC50 [3]: 9.54 µM (active)
IC50 [4]: > 100 µM (inactive)
IC50 [5]: 4.51 µM (active)
IC50 [6]: 5.62 µM (active)

Structure (SMILES): COc1ccc(C(c2cc3c(cc2O)OCO3)N2CCOCC2)cc1OC (configuration not stated)
IC50 [7]: 12.2 µM (not active)

EC50 [8]: > 55.7 µM (not active)
EC50 [9]: > 55.7 µM (not active)
IC50 [10]: 50 µM (inactive)
EC50 [11]: 1.19 µM (active)
Structure (SMILES): Cc1cc(/C=C2/C(=N)N3C(=NC2=O)SN=C3S(C)(=O)=O)c(C)n1-c1ccccc1F

Structure (SMILES): Cc1c(-n2cc(C(=O)c3cc(Cl)ccc3O)cc(C#N)c2=O)c(=O)n(-c2ccccc2)n1C
IC50 [12]: > 55.9 µM (not active)
IC50 [13]: 13 µM (active)
IC50 [14]: 7.48 µM (active)
IC50 [15]: > 55.7 µM (not active)

IC50 [16]: > 100 µM (not active)
IC50 [17]: 10.8 µM (not active)
IC50 [18]: > 49.8 µM (not active)
IC50 [19]: > 100 µM (not active)
IC50 [20]: > 109 µM (not active)
Structure (SMILES): COc1ccc(Br)cc1/C=c1\sc2nc(-c3ccco3)nn2c1=O

Structure (SMILES): COc1ccc(C(=O)O/N=C(/C)c2cccs2)cc1
EC50 [21]: 1.34 µM (active)
AC50 [22]: 31.8 µM (active)
AC50 [23]: 15.7 µM (active)
EC50 [24]: 0.517 µM (active)

Structure (SMILES): COc1ccc2c(Cl)c(C(=O)N/N=C/c3ccncc3)sc2c1
IC50 [25]: 6.48 µM (active)
IC50 [26]: > 67 µM (not active)

Structure (SMILES): COc1ccc(/C(C#N)=C/c2ccccn2)cc1
AC50 [27]: 19.9 µM (active)

Reference: ChEMBL document CHEMBL1201862, “PubChem BioAssay data set” (2004)
